Source: ChEMBL document CHEMBL4177688, “Design, synthesis, and evaluation of A-ring-modified lamellarin N analogues as noncovalent inhibitors of the EGFR T790M/L858R mutant” (Bioorg Med Chem, 2017)

Columns and labels:
[1] = biological target: Epidermal growth factor receptor (Homo sapiens, UniProt P00533); format: single protein
Description: Inhibition of recombinant wild type EGFR (696 to C-terminal residues) (unknown origin) preincubated for 30 mins followed by poly (Glu-Tyr) biotinylated peptide substrate addition measured after 30 mins in presence of ATP by ELISA

[2] = biological target: Epidermal growth factor receptor (Homo sapiens, UniProt P00533, L858R/T790M); test: Inhibition of recombinant EGFR (unknown origin) T790M/L858R double mutant preincubated for 30 mins followed by poly (Glu-Tyr) biotinylated peptide substrate addition measured after 30 mins in presence of ATP by ELISA
Chain of Epidermal growth factor receptor (Homo sapiens, UniProt P00533, L858R/T790M) (P00533 25-1210 T790M/L858R limits assumed): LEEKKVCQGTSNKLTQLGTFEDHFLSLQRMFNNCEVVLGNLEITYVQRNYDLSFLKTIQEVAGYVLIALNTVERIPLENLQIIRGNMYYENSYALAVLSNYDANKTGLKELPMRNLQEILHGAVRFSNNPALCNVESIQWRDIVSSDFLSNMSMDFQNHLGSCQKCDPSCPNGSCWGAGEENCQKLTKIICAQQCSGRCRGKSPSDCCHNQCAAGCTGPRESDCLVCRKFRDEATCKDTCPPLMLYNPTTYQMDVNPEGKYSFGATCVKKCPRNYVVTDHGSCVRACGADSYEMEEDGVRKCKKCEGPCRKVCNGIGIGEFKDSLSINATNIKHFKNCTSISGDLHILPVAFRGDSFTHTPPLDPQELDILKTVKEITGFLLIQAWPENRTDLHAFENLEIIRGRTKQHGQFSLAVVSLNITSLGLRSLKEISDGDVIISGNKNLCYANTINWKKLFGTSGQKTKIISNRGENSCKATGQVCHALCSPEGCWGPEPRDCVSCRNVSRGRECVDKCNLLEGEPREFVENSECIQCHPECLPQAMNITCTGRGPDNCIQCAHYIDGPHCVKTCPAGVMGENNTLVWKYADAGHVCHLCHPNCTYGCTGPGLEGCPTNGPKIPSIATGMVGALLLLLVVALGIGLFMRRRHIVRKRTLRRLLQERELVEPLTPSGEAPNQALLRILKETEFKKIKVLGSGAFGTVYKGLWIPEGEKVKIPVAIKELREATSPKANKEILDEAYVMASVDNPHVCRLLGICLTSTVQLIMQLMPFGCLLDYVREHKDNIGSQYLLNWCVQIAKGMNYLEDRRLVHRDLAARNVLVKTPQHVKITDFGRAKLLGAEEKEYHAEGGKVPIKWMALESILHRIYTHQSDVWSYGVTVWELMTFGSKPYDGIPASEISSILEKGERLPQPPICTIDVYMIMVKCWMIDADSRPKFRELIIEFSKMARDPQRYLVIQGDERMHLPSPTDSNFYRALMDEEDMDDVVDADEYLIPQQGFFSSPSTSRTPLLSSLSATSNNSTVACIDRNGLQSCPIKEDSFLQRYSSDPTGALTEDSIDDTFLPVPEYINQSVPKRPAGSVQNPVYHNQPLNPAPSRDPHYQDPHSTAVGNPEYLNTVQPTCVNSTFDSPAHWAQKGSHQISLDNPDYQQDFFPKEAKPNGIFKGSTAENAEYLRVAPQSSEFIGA

Chain of Epidermal growth factor receptor (Homo sapiens, UniProt P00533) (P00533 whole entry): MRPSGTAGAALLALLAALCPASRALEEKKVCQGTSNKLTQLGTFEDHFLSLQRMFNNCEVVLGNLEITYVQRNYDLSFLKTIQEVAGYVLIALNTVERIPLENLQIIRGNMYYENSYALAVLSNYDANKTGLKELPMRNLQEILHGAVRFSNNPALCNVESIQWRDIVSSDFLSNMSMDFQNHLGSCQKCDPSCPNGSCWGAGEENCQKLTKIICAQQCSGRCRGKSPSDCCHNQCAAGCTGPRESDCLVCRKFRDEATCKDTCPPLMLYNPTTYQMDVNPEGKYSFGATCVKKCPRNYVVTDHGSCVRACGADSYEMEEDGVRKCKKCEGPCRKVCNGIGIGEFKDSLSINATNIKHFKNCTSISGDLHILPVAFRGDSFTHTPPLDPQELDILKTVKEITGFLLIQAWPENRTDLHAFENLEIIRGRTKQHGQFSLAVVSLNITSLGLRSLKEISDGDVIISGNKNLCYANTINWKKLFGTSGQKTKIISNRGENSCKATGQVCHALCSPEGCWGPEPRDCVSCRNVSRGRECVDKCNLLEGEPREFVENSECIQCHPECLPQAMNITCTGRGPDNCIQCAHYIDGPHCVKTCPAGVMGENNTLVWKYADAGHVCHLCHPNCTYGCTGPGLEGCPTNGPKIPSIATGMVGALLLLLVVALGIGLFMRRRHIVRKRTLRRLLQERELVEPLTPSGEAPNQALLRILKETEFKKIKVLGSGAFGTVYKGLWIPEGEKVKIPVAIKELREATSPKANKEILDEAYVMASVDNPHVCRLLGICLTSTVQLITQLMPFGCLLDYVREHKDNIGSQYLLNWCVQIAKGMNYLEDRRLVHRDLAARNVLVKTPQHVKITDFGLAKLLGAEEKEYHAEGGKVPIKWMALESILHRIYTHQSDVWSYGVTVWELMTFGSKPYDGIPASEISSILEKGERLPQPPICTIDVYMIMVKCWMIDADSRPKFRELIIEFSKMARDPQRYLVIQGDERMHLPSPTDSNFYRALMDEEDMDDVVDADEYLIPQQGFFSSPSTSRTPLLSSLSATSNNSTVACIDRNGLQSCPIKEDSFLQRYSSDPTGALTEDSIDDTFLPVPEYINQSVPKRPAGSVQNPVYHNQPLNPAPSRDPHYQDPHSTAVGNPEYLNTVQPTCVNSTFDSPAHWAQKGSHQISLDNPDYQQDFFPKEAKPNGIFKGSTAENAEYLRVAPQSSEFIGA

IC50 [1] [nM] | IC50 [2] [nM] | SMILES
191 | 233 | COc1ccc(-c2c3c4cc(OCCN(C)C)c(OCCN(C)C)cc4oc(=O)c3n3ccc4cc(O)c(OC)cc4c23)cc1O
215 | 188 | COc1ccc(-c2c3c4cc(OC)c(OCCCN(C)C)cc4oc(=O)c3n3ccc4cc(O)c(OC)cc4c23)cc1O
47.8 | 82.6 | COc1ccc(-c2c3c4cc(O)c(OCCCN(C)C)cc4oc(=O)c3n3ccc4cc(O)c(OC)cc4c23)cc1O
31.8 | 8.9 | COc1ccc(-c2c3c4cc(OCCCN(C)C)c(OCCCN(C)C)cc4oc(=O)c3n3ccc4cc(O)c(OC)cc4c23)cc1O
595 | 560 | COc1ccc(-c2c3c4cc(OC)c(OCCN(C)C)cc4oc(=O)c3n3ccc4cc(O)c(OC)cc4c23)cc1O
> 1000 | > 1000 | COc1ccc(-c2c3c4cc(OC)c(OC)cc4oc(=O)c3n3ccc4cc(O)c(OC)cc4c23)cc1O
47 | 39 | COc1ccc(-c2c3c4cc(OC)c(OCCCNC(=N)N)cc4oc(=O)c3n3ccc4cc(O)c(OC)cc4c23)cc1O
> 1000 | > 1000 | COc1ccc(-c2c3c4cc(OC)c(OCCNC(=N)N)cc4oc(=O)c3n3ccc4cc(O)c(OC)cc4c23)cc1O
> 1000 | > 1000 | COc1ccc(-c2c3c4cc(OCCCN5CCOCC5)c(OCCCN5CCOCC5)cc4oc(=O)c3n3ccc4cc(O)c(OC)cc4c23)cc1O
842 | > 1000 | COc1ccc(-c2c3c4cc(OCCN(C)C)c(OC)cc4oc(=O)c3n3ccc4cc(O)c(OC)cc4c23)cc1O
249 | 397 | COc1ccc(-c2c3c4cc(O)c(OC)cc4oc(=O)c3n3ccc4cc(O)c(OC)cc4c23)cc1O
